Laboratory results: patent publication US7888390B2, “Preparation of platinum(II) complexes” (Platco Technologies (Proprietary) Limited, priority 2003, dated 2011)

Assays:
Type in all cases: cell-based
cervical cancer cells = assay: Anticancer testing, inhibition of cervical cancer cells, 5% foetal calf serum medium; conditions: 5% foetal calf serum as medium
colon cancer cells = assay: Anticancer testing, inhibition of colon cancer cells, medium containing 10 mM glutathione; conditions: 100 μM
breast cancer = assay: Anticancer testing, inhibition on breast cancer, medium containing 10 mM glutathione; conditions: 100 μM solution

| SMILES | percentage inhibition on cervical cancer cells (cervical cancer cells; 10 μM solution) [%] | percentage inhibition on cervical cancer cells (cervical cancer cells; 100 μM solution) [%] | inhibition of colon cancer cells (colon cancer cells) [%] | inhibition on breast cancer (breast cancer) [%] |
| --- | --- | --- | --- | --- |
| CSCCCc1nccn1C.O=C([O-])C(=O)[O-].[Pt+2] [Example 6, oxalato(1-methyl-2-methylthiopropylimidazole)platinum(II)] | 88.6 | 97.7 | 85 | 72 |
| N.N.[Cl][Pt][Cl] [cisplatin] | 85.4 | 95.3 | 48 | 10 |
